Laboratory results as given in the NIST ThermoML archive (doi:10.1021/je500275j).
Numbers after ± are expanded uncertainties.

Key:
[1] = xn = mol fraction of the nth substance listed; conditions: 100 kPa, Liquid; for viscosity: Falling or rolling sphere viscometry; for mass density: Vibrating tube method
[2] = for viscosity / mass density: 100 kPa, Liquid; for viscosity: Falling or rolling sphere viscometry; for mass density: Vibrating tube method
[3] = refractive index (Na D-line) (dimensionless); conditions: 293.15 K; 101.33 kPa; Liquid; Standard Abbe refractometry

Compound	viscosity ([2]; 293.15 K) [mPa·s]	mass density ([2]; 293.15 K) [kg/m3]	viscosity ([2]; 298.15 K) [mPa·s]	mass density ([2]; 298.15 K) [kg/m3]	viscosity ([2]; 303.15 K) [mPa·s]	mass density ([2]; 303.15 K) [kg/m3]	viscosity ([2]; 308.15 K) [mPa·s]	mass density ([2]; 308.15 K) [kg/m3]	viscosity ([2]; 313.15 K) [mPa·s]	mass density ([2]; 313.15 K) [kg/m3]	viscosity ([2]; 318.15 K) [mPa·s]	mass density ([2]; 318.15 K) [kg/m3]	refractive index [3]	further results
CC1CCCCC1 [methylcyclohexane] + C1CCC(C2CCCCC2)CC1	–	–	–	–	–	–	–	–	–	–	–	–	–	viscosity ([1]; 293.15 K, x2 = 0): 0.733 ± 0.011 mPa·s; mass density ([1]; 293.15 K, x2 = 0): 769.58 ± 0.15 kg/m3; viscosity ([1]; 298.15 K, x2 = 0): 0.687 ± 0.011 mPa·s; mass density ([1]; 298.15 K, x2 = 0): 765.23 ± 0.15 kg/m3; viscosity ([1]; 303.15 K, x2 = 0): 0.645 ± 0.011 mPa·s; mass density ([1]; 303.15 K, x2 = 0): 760.89 ± 0.15 kg/m3; viscosity ([1]; 308.15 K, x2 = 0): 0.608 ± 0.011 mPa·s; mass density ([1]; 308.15 K, x2 = 0): 756.53 ± 0.15 kg/m3; viscosity ([1]; 313.15 K, x2 = 0): 0.575 ± 0.011 mPa·s; mass density ([1]; 313.15 K, x2 = 0): 752.17 ± 0.16 kg/m3; viscosity ([1]; 318.15 K, x2 = 0): 0.545 ± 0.011 mPa·s; mass density ([1]; 318.15 K, x2 = 0): 747.78 ± 0.16 kg/m3
CCCCC1CCCCC1 [butylcyclohexane] + C1CCC(C2CCCCC2)CC1	–	–	–	–	–	–	–	–	–	–	–	–	–	viscosity ([1]; 293.15 K, x2 = 0): 1.3 ± 0.014 mPa·s; mass density ([1]; 293.15 K, x2 = 0): 799.6 ± 0.15 kg/m3; viscosity ([1]; 298.15 K, x2 = 0): 1.198 ± 0.013 mPa·s; mass density ([1]; 298.15 K, x2 = 0): 795.85 ± 0.15 kg/m3; viscosity ([1]; 303.15 K, x2 = 0): 1.109 ± 0.013 mPa·s; mass density ([1]; 303.15 K, x2 = 0): 792.1 ± 0.15 kg/m3; viscosity ([1]; 308.15 K, x2 = 0): 1.03 ± 0.013 mPa·s; mass density ([1]; 308.15 K, x2 = 0): 788.33 ± 0.15 kg/m3; viscosity ([1]; 313.15 K, x2 = 0): 0.96 ± 0.012 mPa·s; mass density ([1]; 313.15 K, x2 = 0): 784.56 ± 0.15 kg/m3; viscosity ([1]; 318.15 K, x2 = 0): 0.898 ± 0.012 mPa·s; mass density ([1]; 318.15 K, x2 = 0): 780.78 ± 0.15 kg/m3
C1CCC(C2CCCCC2)CC1 [1,1'-bicyclohexyl] + CCC1CCCCC1	–	–	–	–	–	–	–	–	–	–	–	–	–	viscosity ([1]; 293.15 K, x1 = 1): 4.017 ± 0.033 mPa·s; mass density ([1]; 293.15 K, x1 = 1): 886.39 ± 0.15 kg/m3; viscosity ([1]; 298.15 K, x1 = 1): 3.541 ± 0.029 mPa·s; mass density ([1]; 298.15 K, x1 = 1): 882.79 ± 0.15 kg/m3; viscosity ([1]; 303.15 K, x1 = 1): 3.145 ± 0.026 mPa·s; mass density ([1]; 303.15 K, x1 = 1): 879.19 ± 0.15 kg/m3; viscosity ([1]; 308.15 K, x1 = 1): 2.817 ± 0.023 mPa·s; mass density ([1]; 308.15 K, x1 = 1): 875.6 ± 0.15 kg/m3; viscosity ([1]; 313.15 K, x1 = 1): 2.54 ± 0.022 mPa·s; mass density ([1]; 313.15 K, x1 = 1): 872.01 ± 0.15 kg/m3; viscosity ([1]; 318.15 K, x1 = 1): 2.302 ± 0.02 mPa·s; mass density ([1]; 318.15 K, x1 = 1): 868.43 ± 0.15 kg/m3
C1CCC(C2CCCCC2)CC1 [1,1'-bicyclohexyl]	4.017 ± 0.033	886.39 ± 0.15	3.541 ± 0.029	882.79 ± 0.15	3.145 ± 0.026	879.19 ± 0.15	2.817 ± 0.023	875.6 ± 0.15	2.54 ± 0.022	872.01 ± 0.15	2.302 ± 0.02	868.43 ± 0.15	1.4787 ± 0.004	Normal melting temperature ([2]; Crystal, DTA): 2.60 ± 6 °C
CC1CCCCC1 [methylcyclohexane]	0.733 ± 0.011	769.58 ± 0.15	0.687 ± 0.011	765.23 ± 0.15	0.645 ± 0.011	760.89 ± 0.15	0.608 ± 0.011	756.53 ± 0.15	0.575 ± 0.011	752.17 ± 0.16	0.545 ± 0.011	747.78 ± 0.16	1.4175 ± 0.004	–
CCCCC1CCCCC1 [butylcyclohexane]	1.3 ± 0.014	799.6 ± 0.15	1.198 ± 0.013	795.85 ± 0.15	1.109 ± 0.013	792.1 ± 0.15	1.03 ± 0.013	788.33 ± 0.15	0.96 ± 0.012	784.56 ± 0.15	0.898 ± 0.012	780.78 ± 0.15	1.4399 ± 0.004	–
CCC1CCCCC1 [ethylcyclohexane]	0.851 ± 0.012	788.23 ± 0.15	0.796 ± 0.012	784.2 ± 0.15	0.748 ± 0.011	780.16 ± 0.15	0.704 ± 0.011	776.11 ± 0.15	0.665 ± 0.011	772.04 ± 0.15	0.629 ± 0.011	767.96 ± 0.15	1.4275 ± 0.004	–
